According to publication PMC2754045 (Biochemistry, 2009):

Key:
mTR-GCCG [1] = type: biochemical, mouse; settings: mTR-GCCG versus mTR-GCUG
mTR-GCCG [2] = settings: for Activity lower than that of the wild type enzyme: Sec to Cys mutant versus WT, pH 7.0

Row | Structure (SMILES) | IC50 increase on mutation of Sec to Cys (mTR-GCCG [1]) [fold] | Activity lower than that of the wild type enzyme (mTR-GCCG [2]) | other results
1 | OC[C@H]1O[C@H]([S-])[C@H](O)[C@@H](O)[C@@H]1O.[Au+] [aurothioglucose] | 1.7 | – | –
2 | O=[Se]([O-])[O-].[Na+].[Na+] [selenite, sodium selenite] | – | ~ 2 fold | –
3 | CC(=O)OC[C@H]1O[C@@H]([S-])[C@H](OC(C)=O)[C@@H](OC(C)=O)[C@@H]1OC(C)=O.CCP(CC)CC.[Au+] [auranofin] | 4 | – | –
4 | O=C(O)CCCC[C@@H]1CCSS1 [Lipoic Acid, lipoic acid] | – | – | Km increase in the Cys2 mutant (mTR-GCCG [2]; versus full-length WT enzyme): 2.3 fold
5 | N[C@@H](C[Se][Se]C[C@H](N)C(=O)O)C(=O)O [selenocystine] | – | 3.7 fold | –
